This test deals with aMCI subjects. Kind of test: explicit 3-alternative forced choice task. The note with it: 125 mg twice a day for two weeks, vs placebo, p = 0.039. It counts as in vivo, human. The text has this:
Each bar represents the proportion of the subjects responses (old, similar, or new) when presented with a lure image.
There are various tests known in the art for assessing cognitive function in humans, for example and without limitation, the clinical global impression of change scale (CIBIC-plus scale); the Mini Mental State Exam (MMSE); the Neuropsychiatric Inventory (NPI); the Clinical Dementia Rating Scale (CDR); the Cambridge Neuropsychological Test Automated Battery (CANTAB); the Sandoz Clinical Assessment-Geriatric (SCAG), the Buschke Selective Reminding Test (Buschke and Fuld, 1974); the Verbal Paired Associates subtest; the Logical Memory subtest; the Visual Reproduction subtest of the Wechsler Memory Scale-Revised (WMS-R) (Wechsler, 1997); or the Benton Visual Retention Test. See Folstein et al., J Psychiatric Res 12: 189-98, (1975); Robbins et al., Dementia 5: 266-81, (1994); Rey, L'examen clinique en psychologie, (1964); Kluger et al., J Geriatr Psychiatry Neurol 12:168-79, (1999); Marquis et al., 2002 and Masur et al., 1994. Another example of a cognitive test in humans is the explicit 3-alternative forced choice task. […]
The activity of the subject's medial temporal lobe is measured by functional MRI during the subject's participation in an explicit 3-alternative forced choice task, where participants view novel, repeated and similar ("lure") stimuli. […]

Molecules are shown by their SMILES.

For `CC[C@@H](C(N)=O)N1CCCC1=O` [levetiracetam, (2S)-2-(2-oxopyrrolidin-1-yl) butanamide], the “performance in the explicit 3-alternative forced choice task (similar vs old responses to lures)” value is reported as “improves significantly”.

Values taken from US20230033195A1, “METHODS AND COMPOSITIONS FOR IMPROVING COGNITIVE FUNCTION” (THE JOHNS HOPKINS UNIVERSITY, priority 2011, published 2023).
